Results on 29 compounds are retold here after US11046699B2, “Pyrazolo-pyrimidin-amino-cycloalkyl compounds and their therapeutic uses” (RAPT THERAPEUTICS, INC., priority 2018, dated 2021).

For this assay, the target named is GCN2 (Homo sapiens, UniProt Q9P2K8). Nature of the assay: GCN2 enzymatic endpoint assay: phosphorylation of GFP-eIF2α measured by TR-FRET (Lanthascreen). It counts as biochemical. The procedure, abridged: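 Endpoint GCN2 reaction with low ATP (2 μM) and 80 nM GFP-eIF2α, room temperature, 90 minutes. Detection mix with EDTA and Tb-labelled antibody; 520 nm/495 nm emission ratio reported.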
GCN2, sequence (Q9P2K8 whole entry): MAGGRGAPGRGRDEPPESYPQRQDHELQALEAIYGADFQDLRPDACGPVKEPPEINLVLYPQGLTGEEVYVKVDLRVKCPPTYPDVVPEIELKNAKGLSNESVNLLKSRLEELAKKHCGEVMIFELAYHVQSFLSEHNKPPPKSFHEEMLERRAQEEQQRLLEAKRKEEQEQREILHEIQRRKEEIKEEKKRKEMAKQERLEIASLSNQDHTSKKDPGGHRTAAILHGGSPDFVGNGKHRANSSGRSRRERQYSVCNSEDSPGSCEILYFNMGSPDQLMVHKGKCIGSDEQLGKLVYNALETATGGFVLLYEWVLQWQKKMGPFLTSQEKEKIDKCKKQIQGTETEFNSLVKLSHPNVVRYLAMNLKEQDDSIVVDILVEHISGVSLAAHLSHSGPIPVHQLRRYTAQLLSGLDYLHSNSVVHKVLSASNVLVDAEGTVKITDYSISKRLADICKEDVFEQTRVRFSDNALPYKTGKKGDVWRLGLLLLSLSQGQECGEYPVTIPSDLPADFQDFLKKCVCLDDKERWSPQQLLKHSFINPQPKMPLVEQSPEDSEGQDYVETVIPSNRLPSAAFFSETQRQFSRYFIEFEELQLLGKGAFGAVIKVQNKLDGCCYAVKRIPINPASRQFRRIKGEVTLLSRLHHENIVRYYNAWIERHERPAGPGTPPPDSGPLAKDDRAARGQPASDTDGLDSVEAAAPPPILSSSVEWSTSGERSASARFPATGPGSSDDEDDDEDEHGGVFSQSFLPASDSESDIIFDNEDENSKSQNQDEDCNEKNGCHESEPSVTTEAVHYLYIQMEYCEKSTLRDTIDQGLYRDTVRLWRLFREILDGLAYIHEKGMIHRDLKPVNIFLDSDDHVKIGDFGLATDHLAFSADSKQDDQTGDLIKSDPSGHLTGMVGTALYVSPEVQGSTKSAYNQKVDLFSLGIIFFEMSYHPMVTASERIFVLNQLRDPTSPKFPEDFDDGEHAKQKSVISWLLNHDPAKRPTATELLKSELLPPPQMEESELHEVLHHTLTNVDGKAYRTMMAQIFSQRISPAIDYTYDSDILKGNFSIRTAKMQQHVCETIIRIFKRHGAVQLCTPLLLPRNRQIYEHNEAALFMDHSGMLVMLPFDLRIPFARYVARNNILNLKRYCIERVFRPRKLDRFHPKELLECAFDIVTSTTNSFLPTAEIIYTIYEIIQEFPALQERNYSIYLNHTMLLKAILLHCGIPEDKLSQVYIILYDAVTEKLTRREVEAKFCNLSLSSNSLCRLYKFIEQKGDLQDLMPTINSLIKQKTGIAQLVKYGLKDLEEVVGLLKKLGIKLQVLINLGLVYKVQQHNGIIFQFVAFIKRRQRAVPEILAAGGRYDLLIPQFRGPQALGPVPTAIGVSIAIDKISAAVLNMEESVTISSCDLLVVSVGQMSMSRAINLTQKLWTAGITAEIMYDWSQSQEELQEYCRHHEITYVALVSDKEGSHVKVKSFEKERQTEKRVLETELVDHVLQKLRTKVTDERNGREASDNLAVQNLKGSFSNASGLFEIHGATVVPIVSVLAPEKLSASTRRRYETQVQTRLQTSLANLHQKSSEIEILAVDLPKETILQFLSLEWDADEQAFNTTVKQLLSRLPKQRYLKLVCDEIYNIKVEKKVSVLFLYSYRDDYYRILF
On the technique in general: TR-FRET usually uses a lanthanide donor and a delayed reading to cut background.

The mark [1] stands for this setting: tested as described in Example 77, compound and/or hydrochloride, dihydrochloride or trifluoroacetic acid salt, read-out: IC 50 Activity.
[2] abbreviates: GCN2 biochemical IC50, 4 nM GCN2, 2 μM ATP, 80 nM GFP-eIF2α, 90 min RT, read-out: GCN2 activity.

Where two headings read alike, the source gives them in different places.

On to `CNC(=O)[C@]1(C)CC[C@@H](Nc2ncc3c(Br)nn(-c4ccc(-c5ncco5)c(C5CCCNC5)c4)c3n2)C1` (stereo partly drawn) [(1R,3R)-3-[[3-bromo-1-[4-oxazol-2-yl-3-(3-piperidyl)phenyl]pyrazolo[3,4-d]pyrimidin-6-yl]amino]-N,1-dimethyl-cyclopentanecarboxamide], for which the IC50 under setting [1] fell in the range of 25 to 200 nM.

As for `O=C(N[C@@H]1CCOC1)[C@@H]1CC[C@@H](Nc2ncc3c(Br)nn(-c4cc(Cl)c5ncccc5c4)c3n2)C1` [(1R,3R)-3-((3-bromo-1-(8-chloroquinolin-6-yl)-1H-pyrazolo[3,4-d]pyrimidin-6-yl)amino)-N-((R)-tetrahydrofuran-3-yl)cyclopentane-1-carboxamide], the IC50 under setting [1] is under 25 nM.

Turning to `COCCC(=O)N[C@H]1C[C@H](Nc2ncc3c(Br)nn(-c4ccc5ncccc5c4)c3n2)C1` [Example 3, N-((1r,3r)-3-((3-bromo-1-(quinolin-6-yl)-1H-pyrazolo[3,4-d]pyrimidin-6-yl)amino)cyclobutyl)-3-methoxypropanamide], the IC50 under setting [2] was in the range of 500 to 1000 nM.

For the compound `O=C(NCC(F)(F)CO)[C@@H]1CC[C@@H](Nc2ncc3c(Br)nn(-c4cc(F)c5ncccc5c4)c3n2)C1`, under setting [1], the IC50 was in the range of 25 to 200 nM.

Consider `CNC(=O)[C@]1(C)CC[C@@H](Nc2ncc3c(Br)nn(-c4ccc(-c5cncn5C)cc4)c3n2)C1` [(1R,3R)-3-[[3-bromo-1-[4-(3-methylimidazol-4-yl)phenyl]pyrazolo[3,4-d]pyrimidin-6-yl]amino]-N,1-dimethyl-cyclopentane-carboxamide], for which the IC50 under setting [1] was in the range of 25 to 200 nM.

On to `CNC(=O)[C@]1(C)CC[C@@H](Nc2ncc3c(Br)nn(-c4ccc5c(c4)[C@H](NS(C)(=O)=O)CC5)c3n2)C1` [(1R,3R)-3-[[3-bromo-1-[(3R)-3-(methanesulfonamido)indan-5-yl]pyrazolo [3,4-d]pyrimidin-6-yl]amino]-N,1-dimethyl-cyclopentanecarboxamide], for which, under setting [1], the IC50 lay in the range of 25 to 200 nM.

As to `COCCNC(=O)[C@@H]1CC[C@@H](Nc2ncc3c(Br)nn(-c4cc(C(F)F)c5ncccc5c4)c3n2)C1` [(1R,3R)-3-((3-bromo-1-(8-(difluoromethyl)quinolin-6-yl)-1H-pyrazolo[3,4-d]pyrimidin-6-yl)amino)-N-(2-methoxyethyl)cyclopentane-1-carboxamide], the IC50 under setting [1] is 25 to 200 nM.

For `CNC(=O)[C@]1(CCOC)CC[C@@H](Nc2ncc3c(Br)nn(-c4ccc(-c5nnc(C)s5)cc4)c3n2)C1`, under setting [1], the IC50 was 25 to 200 nM.

In the case of `Cc1nnc(-c2ccc(-n3nc(Br)c4cnc(N[C@@H]5CC[C@@](C)(CO)C5)nc43)cc2)s1` [[(1R,3R)-3-[[3-bromo-1-[4-(5-methyl-1,3,4-thiadiazol-2-yl)phenyl]pyrazolo [3,4-d]pyrimidin-6-yl]amino]-1-methyl-cyclopentyl]methanol], the IC50 under setting [1] lay within 25 to 200 nM.

For `CNC(=O)[C@]1(C)CC[C@@H](Nc2ncc3c(Br)nn(-c4cc(CCO)c5nc(C)ccc5c4)c3n2)C1` [(1R,3R)-3-[[3-bromo-1-[8-(2-hydroxy-ethyl)-2-methyl-6-quinolyl]pyrazolo[3,4-d]pyrimidin-6-yl]amino]-N,1-dimethyl-cyclopentanecarboxamide], the IC50 under setting [1] lay in the range of 25 to 200 nM.

On to `CNC(=O)[C@]1(C)CC[C@@H](Nc2ncc3c(Br)nn(-c4cc(CN)cc(C(F)(F)F)c4)c3n2)C1` [(1R,3R)-3-[[1-[3-(aminomethyl)-5-(trifluoromethyl)phenyl]-3-bromo-pyrazolo[3,4-d]pyrimidin-6-yl]amino]-N,1-dimethyl-cyclopentanecarboxamide; 2,2,2-trifluoroacetic acid], for which the IC50 under setting [1] was in the range of 25 to 200 nM.

As to `CNC(=O)C1(C)CC[C@@H](Nc2ncc3c(Br)nn(-c4cc(Cl)cc(CO)c4)c3n2)C1` (mixture of isomers) [Example 17, (3R)-3-((3-bromo-1-(3-chloro-5-(hydroxymethyl)phenyl)-1H-pyrazolo[3,4-d]pyrimidin-6-yl)amino)-N,1-dimethylcyclopentane-1-carboxamide], the IC50 under setting [2] is 25 to 200 nM.

Take `CNC(=O)[C@]1(C)CC[C@@H](Nc2ncc3c(Br)nn(-c4cc5c(c(OCC(F)F)c4)N(C)C(=O)CO5)c3n2)C1` [(1R,3R)-3-[[3-bromo-1-[5-(2,2-difluoro-ethoxy)-4-methyl-3-oxo-1,4-benzoxazin-7-yl]pyrazolo[3,4-d]pyrimidin-6-yl]amino]-N,1-dimethyl-cyclopentanecarboxamide]: the IC50 under setting [1] was under 25 nM.

In the case of `CNC(=O)[C@]1(C)CC[C@@H](Nc2ncc3c(Br)nn(-c4ccc(-c5nnc(C)s5)c(CC(N)C(F)(F)F)c4)c3n2)C1` (stereo partly drawn) [(1R,3R)-3-[[1-[3-(2-amino-3,3,3-trifluoro-propyl)-4-(5-methyl-1,3,4-thiadiazol-2-yl)phenyl]-3-bromo-pyrazolo[3,4-d]pyrimidin-6-yl]amino]-N,1-dimethyl-cyclopentane-carboxamide], under setting [1], the IC50 fell in the range of 25 to 200 nM.

Take `CNC(=O)[C@]1(C)CC[C@@H](Nc2ncc3c(Br)nn(-c4cc(CO)c5nccnc5c4)c3n2)C1` [(1R,3R)-3-[[3-bromo-1-[8-(hydroxymethyl)quinoxalin-6-yl]pyrazolo[3,4-d]pyrimidin-6-yl]amino]-N,1-dimethyl-cyclopentane-carboxamide]: the IC50 under setting [1] lay within 25 to 200 nM.

For `CNC(=O)[C@]1(C)CC[C@@H](Nc2ncc3c(Br)nn(-c4cc(CNS(C)(=O)=O)c5nccnc5c4)c3n2)C1` [(1R,3R)-3-[[3-bromo-1-[8-(methane-sulfonamidomethyl)quinoxalin-6-yl]pyrazolo[3,4-d]pyrimidin-6-yl]amino]-N,1-dimethyl-cyclopentanecarboxamide], the IC50 under setting [1] lay within 25 to 200 nM.

Take `O[C@H]1CCC[C@@H]1Nc1ncc2c(Br)nn(-c3cc(F)c4ncccc4c3)c2n1` [(1S,2S)-2-[[3-bromo-1-(8-fluoro-6-quinolyl)pyrazolo[3,4-d]pyrimidin-6-yl]amino] cyclopentanol]: under setting [1], the IC50 is 25 to 200 nM.

For the compound `CNC(=O)[C@]1(C)CC[C@@H](Nc2ncc3c(Br)nn(-c4ccc(-c5nnc(C(C)(C)N)o5)cc4)c3n2)C1` [Example 47, (1R,3R)-3-((1-(4-(5-(2-aminopropan-2-yl)-1,3,4-oxadiazol-2-yl)phenyl)-3-bromo-1H-pyrazolo[3,4-d]pyrimidin-6-yl)amino)-N,1-dimethylcyclopentane-1-carboxamide; 2,2,2-trifluoroacetic acid], the IC50 under setting [2] is 25 to 200 nM.

For the compound `CNC(=O)[C@]1(C)CC[C@@H](Nc2ncc3c(Br)nn(-c4ccc(-c5nnc(C)s5)c(CCC(=O)O)c4)c3n2)C1` [3-[5-[3-bromo-6-[[(1R,3R)-3-methyl-3-(methylcarbamoyl)cyclopentyl]amino]pyrazolo[3,4-d]pyrimidin-1-yl]-2-(5-methyl-1,3,4-thiadiazol-2-yl)phenyl] propanoic acid], the IC50 under setting [1] lay in the range of 25 to 200 nM.

For `CNC(=O)[C@]1(C)CC[C@@H](Nc2ncc3c(Br)nn(-c4cc(C(C)(C)O)c5ncccc5c4)c3n2)C1` [(1R,3R)-3-[[3-bromo-1-[8-(1-hydroxy-1-methyl-ethyl)-6-quinolyl]pyrazolo[3,4-d]pyrimidin-6-yl]amino]-N,1-dimethyl-cyclopentanecarboxamide], the IC50 under setting [1] is 25 to 200 nM.

With `CNC(=O)[C@]1(C)CC[C@@H](Nc2ncc3c(Br)nn(-c4cc(C#N)cc(C5CNC5)c4)c3n2)C1` [(1R,3R)-3-[[1-[3-(azetidin-3-yl)-5-cyano-phenyl]-3-bromo-pyrazolo[3,4-d]pyrimidin-6-yl]amino]-N,1-dimethyl-cyclopentane-carboxamide], the IC50 under setting [1] is 25 to 200 nM.

As for `CNC(=O)[C@]1(C)CC[C@@H](Nc2ncc3c(Br)nn(-c4ccc5c(c4)COC5=O)c3n2)C1`, the IC50 under setting [1] is 25 to 200 nM.

Turning to `CNC(=O)C1(C)CC[C@@H](Nc2ncc3c(Br)nn(-c4cc(CO)cc(OC)c4)c3n2)C1` (stereo partly drawn) [(3R)-3-[[3-bromo-1-[3-(hydroxymethyl)-5-methoxy-phenyl]pyrazolo[3,4-d]pyrimidin-6-yl]amino]-N,1-dimethyl-cyclopentanecarboxamide], the IC50 under setting [1] was in the range of 25 to 200 nM.

In the case of `CNC(=O)[C@]1(C)CC[C@@H](Nc2ncc3c(Br)nn(-c4cc(C)c(C#N)c(C)c4)c3n2)C1` [(1R,3R)-3-[[3-bromo-1-(4-cyano-3,5-dimethyl-phenyl)pyrazolo[3,4-d]pyrimidin-6-yl]amino]-N,1-dimethyl-cyclopentanecarboxamide], under setting [1], the IC50 was in the range of 25 to 200 nM.

Consider `CN=S(C)(=O)CCNC(=O)[C@@H]1CC[C@@H](Nc2ncc3c(Br)nn(-c4cc(F)c5ncccc5c4)c3n2)C1` (stereo partly drawn) [(1R,3R)-3-((3-bromo-1-(8-fluoroquinolin-6-yl)-1H-pyrazolo[3,4-d]pyrimidin-6-yl)amino)-N-(2-(N,S-dimethylsulfonimidoyl)ethyl)cyclopentane-1-carboxamide], for which, under setting [1], the IC50 is under 25 nM.

On to `CNC(=O)[C@@H]1CC[C@@H](Nc2ncc3c(Br)nn(-c4ccc5ncccc5c4)c3n2)C1` [(1R,3R)-3-[[3-bromo-1-(6-quinolyl)pyrazolo[3,4-d]pyrimidin-6-yl]amino]-N-methyl-cyclopentanecarboxamide], for which, under setting [1], the IC50 was in the range of 25 to 200 nM.

Consider `Cc1nnc(-c2ccc(-n3nc(Br)c4cnc(N[C@@H]5CC[C@@](C)(C(=O)NCC(F)F)C5)nc43)cc2)s1` [(1R,3R)-3-[[3-bromo-1-[4-(5-methyl-1,3,4-thiadiazol-2-yl)phenyl]pyrazolo [3,4-d]pyrimidin-6-yl]amino]-N-(2,2-difluoroethyl)-1-methyl-cyclopentane-carboxamide], for which the IC50 under setting [1] was in the range of 25 to 200 nM.

With `O=C([C@@H]1CC[C@@H](Nc2ncc3c(Br)nn(-c4cc(F)c5ncccc5c4)c3n2)C1)N1CCS(=O)(=O)CC1` [((1R,3R)-3-((3-bromo-1-(8-fluoroquinolin-6-yl)-1H-pyrazolo[3,4-d]pyrimidin-6-yl)amino)cyclopentyl)(1,1-dioxidothio-morpholino)methanone], the IC50 under setting [1] is 25 to 200 nM.

Turning to `CNC(=O)[C@]1(C)CC[C@@H](Nc2ncc3c(Br)nn(-c4ccc(-c5nnc(C)s5)c(OCS(C)(=O)=O)c4)c3n2)C1` [(1R,3R)-3-[[3-bromo-1-[3-(methylsulfonyl-methoxy)-4-(5-methyl-1,3,4-thiadiazol-2-yl)phenyl]pyrazolo[3,4-d]pyrimidin-6-yl]amino]-N,1-dimethyl-cyclopentane-carboxamide], the IC50 under setting [1] lay in the range of 25 to 200 nM.
